Results on four compounds are retold here after patent publication US6440970B1, “Pharmaceutical compositions and methods for use” (Targacept, Inc., priority 2000, dated 2002).

Experiment [1] has as its target muscle-type nicotinic acetylcholine receptors (Homo sapiens, UniProt P02708+P07510+P11230+Q07001). Kind of experiment: Determination of interaction with muscle receptors. The note with it: at a concentration of 100 uM; percentage of maximal activation induced by (S)-(-)-nicotine. In kind it is cell-based. As for the experimental part: Determination of Interaction with Muscle Receptors
The determination of the interaction of the compounds with muscle receptors was carried out in accordance with the techniques described in U.S. Pat. No. 5,597,919 to Dull et al. The maximal activation for individual compounds (Emax) was determined as a percentage of the maximal activation induced by (S)-(−)-nicotine. Reported Emax values represent the amount released relative to (S)-(−)-nicotine on a percentage basis.

The next experiment addresses CNS nicotinic receptors. Kind of experiment: Determination of binding to relevant receptor sites. Particulars: inhibition constant calculated from IC50 by the method of Cheng et al. As for the experimental part:
Determination of Binding to Relevant Receptor Sites
Binding of the compounds to relevant receptor sites was determined in accordance with the techniques described in U.S. Pat. No. 5,597,919 to Dull et al. Inhibition constants (Ki values), reported in nM, were calculated from the IC50 values using the method of Cheng et al., Biochem, Pharmacol. 22:3099 (1973).

Experiment [2] has as its system ganglionic-type nicotinic acetylcholine receptors. The experiment can be described thus: Determination of interaction with ganglion receptors. The experiment is classed as cell-based. Particulars: at a concentration of 100 uM; percentage of maximal activation induced by (S)-(-)-nicotine. As for the experimental part: Determination of Interaction with Ganglion Receptors
The determination of the interaction of the compounds with ganglionic receptors was carried out in accordance with the techniques described in U.S. Pat. No. 5,597,919 to Dull et al. The maximal activation for individual compounds (Emax) was determined as a percentage of the maximal activation induced by (S)-(−)-nicotine. Reported Emax values represent the amount released relative to (S)-(−)-nicotine on a percentage basis.

muscle-type nicotinic acetylcholine receptors, sequence (P02708 whole entry): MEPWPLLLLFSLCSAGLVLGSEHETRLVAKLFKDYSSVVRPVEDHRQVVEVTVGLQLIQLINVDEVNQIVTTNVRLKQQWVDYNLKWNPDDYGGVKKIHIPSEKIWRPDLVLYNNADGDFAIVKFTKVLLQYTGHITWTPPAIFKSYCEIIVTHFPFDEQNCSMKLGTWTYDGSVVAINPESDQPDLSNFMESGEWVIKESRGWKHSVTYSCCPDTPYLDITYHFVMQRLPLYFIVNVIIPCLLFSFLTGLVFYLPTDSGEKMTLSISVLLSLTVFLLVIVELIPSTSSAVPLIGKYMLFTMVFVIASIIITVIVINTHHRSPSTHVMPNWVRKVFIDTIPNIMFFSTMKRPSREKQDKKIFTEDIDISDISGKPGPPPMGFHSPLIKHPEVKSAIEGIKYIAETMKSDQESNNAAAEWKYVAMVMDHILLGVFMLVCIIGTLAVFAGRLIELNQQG
muscle-type nicotinic acetylcholine receptors, sequence (P11230 24-501): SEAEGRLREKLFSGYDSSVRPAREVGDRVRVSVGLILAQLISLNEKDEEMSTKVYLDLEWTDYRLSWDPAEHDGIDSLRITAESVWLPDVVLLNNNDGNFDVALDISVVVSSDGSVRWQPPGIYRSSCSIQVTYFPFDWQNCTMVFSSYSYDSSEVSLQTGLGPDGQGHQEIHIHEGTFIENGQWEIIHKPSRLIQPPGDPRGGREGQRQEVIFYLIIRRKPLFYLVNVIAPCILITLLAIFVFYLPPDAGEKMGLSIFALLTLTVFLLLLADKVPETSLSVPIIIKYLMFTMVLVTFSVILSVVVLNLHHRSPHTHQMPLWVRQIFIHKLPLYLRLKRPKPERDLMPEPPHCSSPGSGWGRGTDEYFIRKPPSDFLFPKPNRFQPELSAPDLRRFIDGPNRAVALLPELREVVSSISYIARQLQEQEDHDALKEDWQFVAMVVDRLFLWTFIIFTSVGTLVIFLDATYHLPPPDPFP
muscle-type nicotinic acetylcholine receptors, sequence (P07510 23-517): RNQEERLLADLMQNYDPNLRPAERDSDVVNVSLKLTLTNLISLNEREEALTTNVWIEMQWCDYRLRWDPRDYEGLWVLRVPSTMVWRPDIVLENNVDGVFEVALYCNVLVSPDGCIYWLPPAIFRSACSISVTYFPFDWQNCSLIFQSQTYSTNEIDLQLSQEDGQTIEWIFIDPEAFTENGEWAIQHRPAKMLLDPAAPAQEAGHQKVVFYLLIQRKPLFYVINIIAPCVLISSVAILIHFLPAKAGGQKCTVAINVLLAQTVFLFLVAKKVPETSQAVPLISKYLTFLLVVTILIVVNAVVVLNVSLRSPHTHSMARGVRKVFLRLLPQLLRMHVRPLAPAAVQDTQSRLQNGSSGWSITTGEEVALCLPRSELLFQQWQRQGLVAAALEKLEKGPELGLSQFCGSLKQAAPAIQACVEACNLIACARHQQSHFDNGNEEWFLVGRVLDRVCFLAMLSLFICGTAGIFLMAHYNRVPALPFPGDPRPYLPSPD
muscle-type nicotinic acetylcholine receptors, sequence (Q07001 22-517): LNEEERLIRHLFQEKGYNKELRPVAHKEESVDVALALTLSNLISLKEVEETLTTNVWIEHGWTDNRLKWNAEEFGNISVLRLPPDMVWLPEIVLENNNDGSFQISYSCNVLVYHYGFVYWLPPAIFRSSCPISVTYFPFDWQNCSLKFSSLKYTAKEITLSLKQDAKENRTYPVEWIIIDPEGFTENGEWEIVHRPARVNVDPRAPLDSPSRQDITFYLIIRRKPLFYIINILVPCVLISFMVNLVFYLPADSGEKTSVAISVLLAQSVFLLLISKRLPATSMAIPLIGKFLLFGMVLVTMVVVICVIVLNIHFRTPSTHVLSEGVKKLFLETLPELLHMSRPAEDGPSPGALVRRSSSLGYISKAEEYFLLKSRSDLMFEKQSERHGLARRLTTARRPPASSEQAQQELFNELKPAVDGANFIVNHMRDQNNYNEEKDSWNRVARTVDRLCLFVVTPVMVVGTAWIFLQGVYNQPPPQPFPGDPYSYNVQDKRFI

The Emax is the maximal effect, on the per cent scale that the assay sets. Broadly, the Ki is the equilibrium dissociation constant of an inhibitor or competing ligand from its target. With `Brc1cncc(N2C[C@@H]3C[C@H]2CN3)c1` [Sample No. 1, (1S,4S)-(5-bromo-3-pyridyl)-2,5-diazabicyclo[2.2.1]heptane], in experiment [1], the “Emax at muscle-type receptors” value came to 0%. In addition, the Ki on CNS nicotinic receptors is 56 nM. Also, the “Emax at ganglionic-type receptors” value in experiment [2] came out at 5%.

As to “(1S,4S)-(5-(4-methoxyphenoxy)-3-pyridyl)-2,5-diazabicyclo[2.2.1]heptane hemigalactarate [Sample No. 2]”, in experiment [1], the “Emax at muscle-type receptors” value came to 12%. In addition, the “Emax at ganglionic-type receptors” value in experiment [2] was found to be 11%.

With “(1S,4S)-(5-pyrimidinyl)-2,5-diazabicyclo[2.2.1]heptane hemigalactarate [Sample No. 3]”, the “Emax at muscle-type receptors” value in experiment [1] worked out at 100%. The “Emax at ganglionic-type receptors” value in experiment [2] turned out to be 11%.

“(1S,4S)-(6-chloro-3-pyridazinyl)-2,5-diazabicyclo[2.2.1]heptane hemigalactarate [Sample No. 4]”: the “Emax at muscle-type receptors” value in experiment [1] stood at 0%. The maximal effect (Emax) at ganglionic-type receptors in experiment [2] was 28%.
